According to PubChem BioAssay (NCI):
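Dose response: 5 concentrations. Exposure: 48 h. Format: 96-well plates. Endpoint: linear interpolation; highest concentration if not reached. The concentration for full growth arrest is given as TGI.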

How the values were obtained:
Assay in all cases: NCI tumour cell line growth inhibition, 48 h
PC-3 prostate = test system: PC-3 prostate
KM12 colon = test system: KM12 colon
UO-31 renal = test system: UO-31 renal
CCRF-CEM leukemia = test system: CCRF-CEM leukemia
OVCAR-3 ovarian = test system: OVCAR-3 ovarian
SN12C renal = test system: SN12C renal
OVCAR-5 ovarian = test system: OVCAR-5 ovarian
RXF 393 renal = test system: RXF 393 renal
SF-268 CNS = test system: SF-268 CNS
UACC-257 melanoma = test system: UACC-257 melanoma
EKVX NSCLC = test system: EKVX NSCLC
SF-295 CNS = test system: SF-295 CNS
HCT-15 colon = test system: HCT-15 colon
MDA-MB-435 = test system: MDA-MB-435
HT29 colon = test system: HT29 colon
SK-MEL-28 melanoma = test system: SK-MEL-28 melanoma
MOLT-4 leukemia = test system: MOLT-4 leukemia
NCI-H226 lung = test system: NCI-H226 lung
HCT-116 colon = test system: HCT-116 colon
NCI-H23 lung = test system: NCI-H23 lung
U251 CNS = test system: U251 CNS
A549 NSCLC = test system: A549 NSCLC
TK-10 renal = test system: TK-10 renal
LOX IMVI melanoma = test system: LOX IMVI melanoma
MDA-MB-231 breast = test system: MDA-MB-231 breast
DU-145 prostate = test system: DU-145 prostate
OVCAR-4 ovarian = test system: OVCAR-4 ovarian
786-0 renal = test system: 786-0 renal
RPMI-8226 leukemia = test system: RPMI-8226 leukemia
NCI-H460 lung = test system: NCI-H460 lung
UACC-62 melanoma = test system: UACC-62 melanoma
HL-60(TB) leukemia = test system: HL-60(TB) leukemia
SK-OV-3 ovarian = test system: SK-OV-3 ovarian
CAKI-1 renal = test system: CAKI-1 renal
SR leukemia = test system: SR leukemia
SNB-75 CNS = test system: SNB-75 CNS
HS 578T breast = test system: HS 578T breast
COLO 205 colon = test system: COLO 205 colon
OVCAR-8 ovarian = test system: OVCAR-8 ovarian
NCI-H522 lung = test system: NCI-H522 lung
SK-MEL-2 melanoma = test system: SK-MEL-2 melanoma
M14 melanoma = test system: M14 melanoma
SK-MEL-5 melanoma = test system: SK-MEL-5 melanoma
HOP-62 NSCLC = test system: HOP-62 NSCLC
SNB-19 CNS = test system: SNB-19 CNS
MCF7 breast = test system: MCF7 breast
K-562 leukemia = test system: K-562 leukemia
SW-620 colon = test system: SW-620 colon
ACHN renal = test system: ACHN renal
MDA-N = test system: MDA-N
T-47D breast = test system: T-47D breast
IGROV1 ovarian = test system: IGROV1 ovarian
MALME-3M melanoma = test system: MALME-3M melanoma
BT-549 breast = test system: BT-549 breast
HCC-2998 colon = test system: HCC-2998 colon
NCI/ADR-RES ovarian = test system: NCI/ADR-RES ovarian
HOP-92 NSCLC = test system: HOP-92 NSCLC
SF-539 CNS = test system: SF-539 CNS
A498 renal = test system: A498 renal

In the case of `CN(CCCCCl)P(=O)(OCC1=CC(=O)c2ccccc2C1=O)OC[C@H]1O[C@@H](n2cc(F)c(=O)[nH]c2=O)C[C@@H]1O` (some centres undefined), the TGI (PC-3 prostate) is reported as 18.8 µM, the TGI (KM12 colon) is reported as 22.3 µM and the TGI (UO-31 renal) is reported as 15.9 µM. It also gave a TGI (CCRF-CEM leukemia) of 29.4 µM, a TGI (OVCAR-3 ovarian) of 12.8 µM and a TGI (SN12C renal) of 1.21 µM. It also gave a TGI (OVCAR-5 ovarian) of 25.2 µM, a TGI (RXF 393 renal) of 2.78 µM and a TGI (SF-268 CNS) of 12.6 µM. The TGI (UACC-257 melanoma) was 24 µM, the TGI (EKVX NSCLC) was 21.2 µM and the TGI (SF-295 CNS) was 0.452 µM. The TGI (HCT-15 colon) was 20.3 µM, the TGI (MDA-MB-435) was 2.21 µM and the TGI (HT29 colon) was 34.4 µM. The TGI (SK-MEL-28 melanoma) was 23.8 µM, the TGI (MOLT-4 leukemia) was 32.2 µM and the TGI (NCI-H226 lung) was 21 µM. The TGI (HCT-116 colon) was 13.5 µM, the TGI (NCI-H23 lung) was 5.07 µM and the TGI (U251 CNS) was 18.4 µM. The TGI (A549 NSCLC) was 0.553 µM, the TGI (TK-10 renal) was 17.7 µM and the TGI (LOX IMVI melanoma) was 10.7 µM. It also gave a TGI (MDA-MB-231 breast) of 19.3 µM, a TGI (DU-145 prostate) of 5.53 µM and a TGI (OVCAR-4 ovarian) of 14.9 µM. It also gave a TGI (786-0 renal) of 18.3 µM, a TGI (RPMI-8226 leukemia) of 21.8 µM and a TGI (NCI-H460 lung) of 7.9 µM. The TGI (UACC-62 melanoma) was 1.93 µM, the TGI (HL-60(TB) leukemia) was 16.5 µM and the TGI (SK-OV-3 ovarian) was greater than 42.8 µM. For the same molecule, the TGI (CAKI-1 renal) was 0.627 µM, the TGI (SR leukemia) was 28.9 µM and the TGI (SNB-75 CNS) was 0.418 µM. For the same molecule, the TGI (HS 578T breast) was 0.603 µM, the TGI (COLO 205 colon) was greater than 26 µM and the TGI (OVCAR-8 ovarian) was 15.7 µM. For the same molecule, the TGI (NCI-H522 lung) was 10.9 µM, the TGI (SK-MEL-2 melanoma) was 23.4 µM and the TGI (M14 melanoma) was 3.52 µM. The TGI (SK-MEL-5 melanoma) was 0.647 µM, the TGI (HOP-62 NSCLC) was 22.6 µM and the TGI (SNB-19 CNS) was greater than 40.6 µM. The TGI (MCF7 breast) was 8.68 µM, the TGI (K-562 leukemia) was 40.9 µM and the TGI (SW-620 colon) was 23.1 µM. It also gave a TGI (ACHN renal) of 14.7 µM, a TGI (MDA-N) of 2.19 µM and a TGI (T-47D breast) of 3.65 µM. For the same molecule, the TGI (IGROV1 ovarian) was 14.3 µM, the TGI (MALME-3M melanoma) was 2.79 µM and the TGI (BT-549 breast) was 22.3 µM.

`c1ccc2c(c1)SC1=C(SC(=C3SC4=C(S3)Sc3ccccc3S4)S1)S2` showed a TGI (PC-3 prostate) greater than 100 µM, a TGI (KM12 colon) greater than 100 µM and a TGI (UO-31 renal) greater than 100 µM. It also gave a TGI (CCRF-CEM leukemia) greater than 100 µM, a TGI (OVCAR-3 ovarian) greater than 100 µM and a TGI (SN12C renal) greater than 100 µM. The TGI (OVCAR-5 ovarian) was greater than 100 µM, the TGI (SF-268 CNS) was greater than 100 µM and the TGI (UACC-257 melanoma) was greater than 100 µM. The TGI (EKVX NSCLC) was greater than 100 µM, the TGI (SF-295 CNS) was greater than 100 µM and the TGI (HCT-15 colon) was greater than 100 µM. For the same molecule, the TGI (MDA-MB-435) was greater than 100 µM, the TGI (HT29 colon) was greater than 100 µM and the TGI (SK-MEL-28 melanoma) was greater than 100 µM. For the same molecule, the TGI (MOLT-4 leukemia) was greater than 100 µM, the TGI (NCI-H226 lung) was greater than 100 µM and the TGI (HCT-116 colon) was greater than 100 µM. The TGI (NCI-H23 lung) was greater than 100 µM, the TGI (U251 CNS) was greater than 100 µM and the TGI (A549 NSCLC) was greater than 100 µM. The TGI (TK-10 renal) was greater than 100 µM, the TGI (LOX IMVI melanoma) was greater than 100 µM and the TGI (MDA-MB-231 breast) was greater than 100 µM. For the same molecule, the TGI (DU-145 prostate) was greater than 100 µM, the TGI (OVCAR-4 ovarian) was greater than 100 µM and the TGI (786-0 renal) was greater than 100 µM. For the same molecule, the TGI (RPMI-8226 leukemia) was greater than 100 µM, the TGI (NCI-H460 lung) was greater than 100 µM and the TGI (UACC-62 melanoma) was greater than 100 µM. For the same molecule, the TGI (HL-60(TB) leukemia) was greater than 100 µM, the TGI (CAKI-1 renal) was greater than 100 µM and the TGI (HCC-2998 colon) was greater than 100 µM. For the same molecule, the TGI (SNB-75 CNS) was greater than 100 µM, the TGI (HS 578T breast) was greater than 100 µM and the TGI (COLO 205 colon) was greater than 100 µM. For the same molecule, the TGI (OVCAR-8 ovarian) was greater than 100 µM, the TGI (NCI-H522 lung) was greater than 100 µM and the TGI (NCI/ADR-RES ovarian) was greater than 100 µM. The TGI (SK-MEL-2 melanoma) was greater than 100 µM, the TGI (HOP-92 NSCLC) was greater than 100 µM and the TGI (M14 melanoma) was greater than 100 µM. The TGI (SK-MEL-5 melanoma) was greater than 100 µM, the TGI (HOP-62 NSCLC) was greater than 100 µM and the TGI (SNB-19 CNS) was greater than 100 µM. For the same molecule, the TGI (MCF7 breast) was greater than 100 µM, the TGI (SW-620 colon) was greater than 100 µM and the TGI (ACHN renal) was greater than 100 µM. The TGI (MDA-N) was greater than 100 µM, the TGI (T-47D breast) was greater than 100 µM and the TGI (IGROV1 ovarian) was greater than 100 µM. For the same molecule, the TGI (SF-539 CNS) was greater than 100 µM, the TGI (MALME-3M melanoma) was greater than 100 µM and the TGI (BT-549 breast) was greater than 100 µM.

In the case of `COc1cc(OC)c2c(c1-c1ccc(C)cc1)CC(C)N(Cc1ccccc1)[C@H]2C` (some centres undefined), the TGI (PC-3 prostate) is reported as greater than 100 µM, the TGI (KM12 colon) is reported as greater than 100 µM and the TGI (UO-31 renal) is reported as greater than 100 µM. The TGI (CCRF-CEM leukemia) was greater than 100 µM, the TGI (SN12C renal) was greater than 100 µM and the TGI (SF-268 CNS) was greater than 100 µM. It also gave a TGI (UACC-257 melanoma) of 68.5 µM, a TGI (EKVX NSCLC) greater than 100 µM and a TGI (SF-295 CNS) greater than 100 µM. The TGI (HCT-15 colon) was greater than 100 µM, the TGI (MDA-MB-435) was greater than 100 µM and the TGI (HT29 colon) was 69.7 µM. The TGI (SK-MEL-28 melanoma) was greater than 100 µM, the TGI (MOLT-4 leukemia) was greater than 100 µM and the TGI (NCI-H226 lung) was greater than 100 µM. It also gave a TGI (HCT-116 colon) greater than 100 µM, a TGI (NCI-H23 lung) greater than 100 µM and a TGI (A549 NSCLC) greater than 100 µM. The TGI (TK-10 renal) was greater than 100 µM, the TGI (LOX IMVI melanoma) was greater than 100 µM and the TGI (MDA-MB-231 breast) was greater than 100 µM. For the same molecule, the TGI (DU-145 prostate) was greater than 100 µM, the TGI (786-0 renal) was greater than 100 µM and the TGI (RPMI-8226 leukemia) was 52.3 µM. The TGI (NCI-H460 lung) was greater than 100 µM, the TGI (UACC-62 melanoma) was greater than 100 µM and the TGI (HL-60(TB) leukemia) was 43.4 µM. For the same molecule, the TGI (SK-OV-3 ovarian) was greater than 100 µM, the TGI (CAKI-1 renal) was greater than 100 µM and the TGI (HCC-2998 colon) was greater than 100 µM. It also gave a TGI (SR leukemia) greater than 100 µM, a TGI (SNB-75 CNS) greater than 100 µM and a TGI (HS 578T breast) of 67.3 µM. The TGI (COLO 205 colon) was greater than 100 µM, the TGI (OVCAR-8 ovarian) was greater than 100 µM and the TGI (NCI-H522 lung) was 72.8 µM. It also gave a TGI (M14 melanoma) greater than 100 µM, a TGI (SK-MEL-5 melanoma) of 51.5 µM and a TGI (HOP-62 NSCLC) greater than 100 µM. For the same molecule, the TGI (SNB-19 CNS) was greater than 100 µM, the TGI (MCF7 breast) was greater than 100 µM and the TGI (K-562 leukemia) was greater than 100 µM. It also gave a TGI (A498 renal) greater than 100 µM, a TGI (SW-620 colon) greater than 100 µM and a TGI (ACHN renal) greater than 100 µM. For the same molecule, the TGI (MDA-N) was greater than 100 µM, the TGI (T-47D breast) was greater than 100 µM and the TGI (IGROV1 ovarian) was greater than 100 µM. It also gave a TGI (SF-539 CNS) greater than 100 µM, a TGI (MALME-3M melanoma) of 53.2 µM and a TGI (BT-549 breast) greater than 100 µM.
